Measurements as given in patent US20260042731A1, “(2,4-DICHLOROPHENOXY)ACETIC ACID ANALOGS” (CORTEVA AGRISCIENCE LLC, priority 2022, published 2026).
Where two headings read alike, the source gives them in different places.

Columns and labels:
[1] = tested on: Amaranthus rudis (AMATA), tall water hemp; test: Postemergence herbicide evaluation, growth of Amaranthus rudis (AMATA); assay type: in vivo; details: Amaranthus tuberculatus, post-emergence, percent reduction in plant size relative to untreated control, read-out: Ave. AMATA; for pest or weed control at 280 g/ha: 280 g ae/ha; for pest or weed control at 560 g/ha: 560 g ae/ha
[2] = tested on: Ambrosia artemisiifolia (AMBEL), common ragweed; test: Postemergence herbicide evaluation, growth of Ambrosia artemisiifolia (AMBEL); assay type: in vivo; details: Ambrosia artemisiifolia, post-emergence, percent reduction in plant size relative to untreated control, read-out: AVE. AMBEL; for pest or weed control at 280 g/ha: 280 g ae/ha; for pest or weed control at 560 g/ha: 560 g ae/ha
[3] = tested on: Abutilon theophrasti (ABUTH), velvetleaf; test: Postemergence herbicide evaluation, growth of Abutilon theophrasti (ABUTH); assay type: in vivo; details: Abutilon theophrasti, post-emergence, percent reduction in plant size relative to untreated control, read-out: AVE. ABUTH; for pest or weed control at 280 g/ha: 280 g ae/ha; for pest or weed control at 560 g/ha: 560 g ae/ha
[4] = tested on: Chenopodium album (CHEAL), common lambsquarters; test: Postemergence herbicide evaluation, growth of Chenopodium album (CHEAL); assay type: in vivo; details: Chenopodium album, post-emergence, percent reduction in plant size relative to untreated control, read-out: Ave. CHEAL; for pest or weed control at 280 g/ha: 280 g ae/ha; for pest or weed control at 560 g/ha: 560 g ae/ha
[5] = tested on: glyphosate resistant Conyza canadensis (L.) (ERICA), horseweed; test: Postemergence herbicide evaluation, growth of Conyza canadensis (ERICA); assay type: in vivo; details: Erigeron canadensis, post-emergence, percent reduction in plant size relative to untreated control, read-out: Ave. ERICA; for pest or weed control at 280 g/ha: 280 g ae/ha; for pest or weed control at 560 g/ha: 560 g ae/ha
[6] = Volatility of compounds measured by thermogravimetric analysis (TGA); assay type: physicochemical
[7] = tested on: weeds (ABUTH, AMATA, AMBEL, CHEAL, ERICA); test: Postemergence herbicide evaluation, overall average % weed control across ABUTH, AMATA, AMBEL, CHEAL, ERICA; assay type: in vivo; details: post-emergence, average over the five weeds, read-out: Overall Ave % Weed Control; for pest or weed control at 280 g/ha: 280 g ae/ha; for pest or weed control at 560 g/ha: 560 g ae/ha

**Q.** What does the source list for `O=C(COc1ccc(Cl)cc1Cl)NOc1ccccc1` [Compound D7]?
**A.** pest or weed control at 280 g/ha ([1]; 168 h, 7 DAA): 73%; pest or weed control at 560 g/ha ([1]; 168 h, 7 DAA): 80%; pest or weed control at 280 g/ha ([1]; 336 h, 14 DAA): 83%; pest or weed control at 560 g/ha ([1]; 336 h, 14 DAA): 90%; pest or weed control at 280 g/ha ([1]; 504 h, 21 DAA): 83%; pest or weed control at 560 g/ha ([1]; 504 h, 21 DAA): 83%; pest or weed control at 280 g/ha ([2]; 168 h, 7 DAA): 63%; pest or weed control at 560 g/ha ([2]; 168 h, 7 DAA): 73%; pest or weed control at 280 g/ha ([2]; 336 h, 14 DAA): 83%; pest or weed control at 560 g/ha ([2]; 336 h, 14 DAA): 89%; pest or weed control at 280 g/ha ([2]; 504 h, 21 DAA): 95%; pest or weed control at 560 g/ha ([2]; 504 h, 21 DAA): 97%; pest or weed control at 280 g/ha ([3]; 168 h, 7 DAA): 68%; pest or weed control at 560 g/ha ([3]; 168 h, 7 DAA): 80%; pest or weed control at 280 g/ha ([3]; 336 h, 14 DAA): 68%; pest or weed control at 560 g/ha ([3]; 336 h, 14 DAA): 85%; pest or weed control at 280 g/ha ([3]; 504 h, 21 DAA): 70%; pest or weed control at 560 g/ha ([3]; 504 h, 21 DAA): 92%; pest or weed control at 280 g/ha ([4]; 168 h, 7 DAA): 65%; pest or weed control at 560 g/ha ([4]; 168 h, 7 DAA): 68%; pest or weed control at 280 g/ha ([4]; 336 h, 14 DAA): 70%; pest or weed control at 560 g/ha ([4]; 336 h, 14 DAA): 75%; pest or weed control at 280 g/ha ([4]; 504 h, 21 DAA): 70%; pest or weed control at 560 g/ha ([4]; 504 h, 21 DAA): 78%; pest or weed control at 280 g/ha ([5]; 168 h, 7 DAA): 63%; pest or weed control at 560 g/ha ([5]; 168 h, 7 DAA): 63%; pest or weed control at 280 g/ha ([5]; 336 h, 14 DAA): 83%; pest or weed control at 560 g/ha ([5]; 336 h, 14 DAA): 85%; pest or weed control at 280 g/ha ([5]; 504 h, 21 DAA): 95%; pest or weed control at 560 g/ha ([5]; 504 h, 21 DAA): 95%; TGA Data (rate of weight loss, volatility) [6]: 0.2 µg/min; pest or weed control at 280 g/ha ([7]; 168 h, 7 DAA): 66%; pest or weed control at 560 g/ha ([7]; 168 h, 7 DAA): 73%; pest or weed control at 280 g/ha ([7]; 336 h, 14 DAA): 77%; pest or weed control at 560 g/ha ([7]; 336 h, 14 DAA): 85%; pest or weed control at 280 g/ha ([7]; 504 h, 21 DAA): 82%; pest or weed control at 560 g/ha ([7]; 504 h, 21 DAA): 89%

**Q.** Which pest or weed control at 280 g/ha ([1]; 168 h, 7 DAA) does the source give for `CN(NC(=O)COc1ccc(Cl)cc1Cl)C(=O)c1ccccc1` [Compound D9, N′-(2-(2,4-Dichlorophenoxy)acetyl)-N-methylbenzohydrazide] here?
**A.** The pest or weed control at 280 g/ha was 65%.

**Q.** And the pest or weed control at 560 g/ha ([1]; 168 h, 7 DAA)?
**A.** The pest or weed control at 560 g/ha was 68%.

**Q.** And the pest or weed control at 280 g/ha ([1]; 336 h, 14 DAA)?
**A.** The pest or weed control at 280 g/ha was 75%.

**Q.** What about the pest or weed control at 560 g/ha ([1]; 336 h, 14 DAA) of the same compound?
**A.** The pest or weed control at 560 g/ha was 70%.

**Q.** What about the pest or weed control at 280 g/ha ([1]; 504 h, 21 DAA) of the same compound?
**A.** Its pest or weed control at 280 g/ha is 83%.

**Q.** And the pest or weed control at 560 g/ha ([1]; 504 h, 21 DAA)?
**A.** The pest or weed control at 560 g/ha was 73%.

**Q.** What about the pest or weed control at 280 g/ha ([2]; 168 h, 7 DAA) of the same compound?
**A.** Its pest or weed control at 280 g/ha is 60%.

**Q.** What about the pest or weed control at 560 g/ha ([2]; 168 h, 7 DAA) of the same compound?
**A.** The pest or weed control at 560 g/ha was 73%.

**Q.** And the pest or weed control at 280 g/ha ([2]; 336 h, 14 DAA)?
**A.** Its pest or weed control at 280 g/ha is 83%.

**Q.** What about the pest or weed control at 560 g/ha ([2]; 336 h, 14 DAA) of the same compound?
**A.** Its pest or weed control at 560 g/ha is 94%.

**Q.** And the pest or weed control at 280 g/ha ([2]; 504 h, 21 DAA)?
**A.** Its pest or weed control at 280 g/ha is 85%.

**Q.** What about the pest or weed control at 560 g/ha ([2]; 504 h, 21 DAA) of the same compound?
**A.** The pest or weed control at 560 g/ha was 99%.

**Q.** What about the pest or weed control at 280 g/ha ([3]; 168 h, 7 DAA) of the same compound?
**A.** Its pest or weed control at 280 g/ha is 43%.

**Q.** And the pest or weed control at 560 g/ha ([3]; 168 h, 7 DAA)?
**A.** The pest or weed control at 560 g/ha was 43%.

**Q.** And the pest or weed control at 280 g/ha ([3]; 336 h, 14 DAA)?
**A.** Its pest or weed control at 280 g/ha is 45%.

**Q.** What about the pest or weed control at 560 g/ha ([3]; 336 h, 14 DAA) of the same compound?
**A.** Its pest or weed control at 560 g/ha is 48%.

**Q.** What about the pest or weed control at 280 g/ha ([3]; 504 h, 21 DAA) of the same compound?
**A.** Its pest or weed control at 280 g/ha is 45%.

**Q.** And the pest or weed control at 560 g/ha ([3]; 504 h, 21 DAA)?
**A.** Its pest or weed control at 560 g/ha is 50%.

**Q.** What about the pest or weed control at 280 g/ha ([4]; 168 h, 7 DAA) of the same compound?
**A.** Its pest or weed control at 280 g/ha is 65%.

**Q.** What about the pest or weed control at 560 g/ha ([4]; 168 h, 7 DAA) of the same compound?
**A.** The pest or weed control at 560 g/ha was 65%.

**Q.** What about the pest or weed control at 280 g/ha ([4]; 336 h, 14 DAA) of the same compound?
**A.** The pest or weed control at 280 g/ha was 73%.

**Q.** And the pest or weed control at 560 g/ha ([4]; 336 h, 14 DAA)?
**A.** The pest or weed control at 560 g/ha was 78%.

**Q.** And the pest or weed control at 280 g/ha ([4]; 504 h, 21 DAA)?
**A.** The pest or weed control at 280 g/ha was 95%.

**Q.** What about the pest or weed control at 560 g/ha ([4]; 504 h, 21 DAA) of the same compound?
**A.** The pest or weed control at 560 g/ha was 90%.

**Q.** What about the pest or weed control at 280 g/ha ([5]; 168 h, 7 DAA) of the same compound?
**A.** The pest or weed control at 280 g/ha was 65%.

**Q.** What about the pest or weed control at 560 g/ha ([5]; 168 h, 7 DAA) of the same compound?
**A.** The pest or weed control at 560 g/ha was 68%.

**Q.** What about the pest or weed control at 280 g/ha ([5]; 336 h, 14 DAA) of the same compound?
**A.** The pest or weed control at 280 g/ha was 83%.

**Q.** And the pest or weed control at 560 g/ha ([5]; 336 h, 14 DAA)?
**A.** The pest or weed control at 560 g/ha was 88%.

**Q.** What about the pest or weed control at 280 g/ha ([5]; 504 h, 21 DAA) of the same compound?
**A.** Its pest or weed control at 280 g/ha is 94%.

**Q.** What about the pest or weed control at 560 g/ha ([5]; 504 h, 21 DAA) of the same compound?
**A.** Its pest or weed control at 560 g/ha is 65%.

**Q.** And the “TGA Data (rate of weight loss, volatility)” value [6]?
**A.** Its value is 0.2 µg/min.

**Q.** And the pest or weed control at 280 g/ha ([7]; 168 h, 7 DAA)?
**A.** Its pest or weed control at 280 g/ha is 60%.

**Q.** And the pest or weed control at 560 g/ha ([7]; 168 h, 7 DAA)?
**A.** The pest or weed control at 560 g/ha was 63%.

**Q.** What about the pest or weed control at 280 g/ha ([7]; 336 h, 14 DAA) of the same compound?
**A.** Its pest or weed control at 280 g/ha is 72%.

**Q.** And the pest or weed control at 560 g/ha ([7]; 336 h, 14 DAA)?
**A.** The pest or weed control at 560 g/ha was 75%.

**Q.** What about the pest or weed control at 280 g/ha ([7]; 504 h, 21 DAA) of the same compound?
**A.** Its pest or weed control at 280 g/ha is 80%.

**Q.** And the pest or weed control at 560 g/ha ([7]; 504 h, 21 DAA)?
**A.** Its pest or weed control at 560 g/ha is 75%.
